US8309522B2, “Neuromedin and FN-38 peptides for treating psychiatric diseases” (Amylin Pharmaceuticals, LLC, priority 2007, dated 2012)
Ends that are not written are not given here.

Legend:
mice [1] = assay: Stress-induced hyperthermia (SIH) assay; type: in vivo; conditions: 60 minutes before the assay, FIG. 1
Experimental: (§1) Animal behavior assays were performed to test for anxiolytic and antipsychotic effects of FN-38 (SEQ ID NO:5) administration. […] These specific behavioral tests are known to be sensitive to anxiolytic or antipsychotic drugs. For these assays, FN-38 was administered to mice at doses ranging from 0.1 to 10 mg/kg, intraperitoneally, and their performance in the assay was assessed.
Body temperature and emotionality are correlated in humans and stress commonly induces an increase in body temperature (hyperthermic response) in rodents. The thermic response to stress is commonly used as an indication of enhanced emotionality or anxiety in rodents and stress-induced hyperthermia (SIH) in mice is considered to have predictive validity for certain human anxiety/stress disorders. The SIH assay assesses the effect of anxiolytics or test agents on SIH and measures the intrinsic effects of these drugs on core body temperature of the animal. See, for example, Zethof et al., 1994, Physiol. Behav. 55:109-115. Anxiolytics blunt the increase in body temperature, or hyperthermic response, following stress exposure. Buspirone is a partial 5-HT1A agonist and a known anxiolytic agent. […] The stress from the first measurement induces hyperthermia which was measured by the second temperature measurement. […]

mice [2] = assay: Marble burying; type: in vivo; conditions: FN-38 10 mg/kg intraperitoneally, 15-30 minutes prior to the test; statistically significant; FIG. 2
Experimental: as §1
Marble burying is used as a model for both anxiety and obsessive-compulsive disorder. See, for example, Chaki et al., 2003, J. Pharmacol. Exp. Ther. 304:818-826. Anxiolytics suppress marble burying activity. Benzodiazepine chlordiazepoxide (CDP) is a known anxiolytic agent. Mice were injected with the test agent (FN-38 (SEQ ID NO:5) at 0.1, 1.0 or 10 mg/kg, 15 mg/kg CDP, or vehicle (water)) 15-30 minutes prior to the test. Mice were then placed individually in clean cages containing 5-cm of hard wood bedding and 20 marbles spaced evenly in rows of five. The number of marbles buried in 30 minutes was recorded. Results of this assay are shown in FIG. 2 where * is P<0.05 vs. vehicle control. […] These reductions in marble burying were statistically significant.

mice [3] = assay: Phencyclidine (PCP)-induced locomotion test; type: in vivo; conditions: FN-38 10 mg/kg, 15-30 minutes prior to 5 mg/kg PCP; activity recorded for 60 minutes; FIG. 3
Experimental: as §1
The PCP-induced locomotion test is used with open field activity chambers and measures locomotion, rearing, and stereotypic activity under amphetamine/PCP-induced conditions. The test has predictive validity for some antipsychotic drugs that normalize the hyperactivity and stereotypic behavior seen with amphetamine and PCP. See, for example, Williams et al., 2006, Prog. Neuropsychopharmacol. Biol. Psychiatry, 30:239-243. Mice were injected with the test agent (FN-38 (SEQ ID NO:5) at 0.1, 1.0 or 10 mg/kg, or vehicle (water)) 15-30 minutes prior injection with 5 mg/kg PCP. The animals were then placed in the center of an open field and activity was recorded for 60 minutes.

mice [4] = assay: Prepulse inhibition (PPI) test; type: in vivo; conditions: 78 and 82 dB prepulse, FIG. 4
Experimental: as §1
The prepulse inhibition (PPI) test measures the reflex response to externally applied auditory stimulation (acoustic startle response) and is related to the deficiency in sensory-motor gating capacity seen in schizophrenia. The acoustic startle reflex is a very basic response to strong exteroceptive stimuli and is widely used to assess sensorimotor reactivity in animals and humans. A weak auditory stimulus (prepulse, 74-82 dB) given prior to the strong acoustic stimulus (120 dB) blunts the startle response. This blunting of the startle response is referred to as prepulse inhibition. See, for example, Conti et al., 2005, Behavioral Neuroscience 119:1052-1060. […]
Mice were injected with the test agent (FN-38 (SEQ ID NO:5) at 0.1, 1.0 or 10 mg/kg, or vehicle (water)) […] to the test or with haloperidol at 1 mg/kg or vehicle (10% DMSO) 30 minutes prior to the test. […] The amount of the animal's “reaction” to the strong stimulus was recorded. […]

rats = conditions: central administration to rats; cited from earlier work

Q: Which “stress-induced hyperthermia (Delta Temperature)” value (mice [1]; 15 mg/kg buspirone, positive control) does the source give for `O=C1CC2(CCCC2)CC(=O)N1CCCCN1CCN(c2ncccn2)CC1` [buspirone, reference compound] here?
A: blunted the SIH response

Q: Which “stress-induced hyperthermia (Delta Temperature)” value (mice [1]; FN-38 10 mg/kg intraperitoneally, P<0.05 vs. vehicle control) does the source give for “FLFHYSKTQKLGKSNVVEELQSPFASQSRGYFLFRPRN (FLFHYSKTQKLGKSNVVEELQSPFASQSRGYFLFRPRN-NH2; listed as Homo sapiens) [FN-38]” here?
A: blunted the SIH response

Q: And the “number of marbles buried in 30 minutes” value (mice [2])?
A: reduced the number of marbles buried

Q: And the “PCP-induced hyper-locomotion (total distance traveled: total, central, and peripheral)” value (mice [3])?
A: significantly reduced this hyper-locomotion response

Q: What about the “percent of prepulse inhibition” value (mice [4]; FN-38 10 mg/kg, 120 dB stimulus) of the same compound?
A: increased the percent of prepulse inhibition

Q: Which food intake (rats) does the source give for “neuromedin U (YKVNEYQGPVAPSGGFFLFRPRN-NH2; UniProt P12760 144-166, looked up) [NMU, neuromedin U, centrally administered to rats in cited literature]” here?
A: inhibited food intake

Q: For `O=C(CCCN1CCC(O)(c2ccc(Cl)cc2)CC1)c1ccc(F)cc1` [halperidol, haloperidol, reference compound], which “percent of prepulse inhibition” value (mice [4]; haloperidol at 1 mg/kg, 30 minutes prior to the test, positive control) is on record?
A: increased the percent of prepulse inhibition
